Source: PubChem BioAssay AID1963851 (Molecular Pharmacology Branch, DTP, NCI, 2024)

Test system: 188146-221-R-J1-PDC complex spheroid viability
Assay: Anticancer human tumor 188146-221-R-J1-PDC patient-derived colon adenocarcinoma cell line growth inhibition [POLQ]
Conditions: for IC50: curve of first compound; for viability, T/C: stronger effect = lower value
Summary of the method: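 Complex spheroid viability model combining PDC tumour cells with endothelial (HUVEC) and MSC stromal cells. Novobiocin, ART-558 or RP6685 were tested singly and in combination with standard and investigational anticancer drugs. Each was titrated in half-log steps from near clinical Cmax, or from 10 microM where Cmax was unknown.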
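Further: spheroids exposed to compounds for seven days.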
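Wherever viability, T/C is given: 100% = DMSO vehicle control viability.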

CC(=O)O[C@H]1C(=O)[C@@]2(C)[C@H]([C@H](OC(=O)c3ccccc3)[C@]3(O)C[C@H](OC(=O)[C@H](O)[C@@H](NC(=O)c4ccccc4)c4ccccc4)C(C)=C1C3(C)C)[C@]1(OC(C)=O)CO[C@@H]1C[C@@H]2O + Nc1ccc(C#CCN(C(=O)Cc2ncc(C(F)(F)F)cc2C(F)(F)F)c2ccc(F)cc2)nn1
IC50 (second compound 0.0316 µM): 0.0136 µM | IC50 (second compound 0.1 µM): 0.0125 µM | IC50 (second compound 0.316 µM): 0.0145 µM | IC50 (second compound 1 µM): 0.0104 µM | IC50 (second compound 3.16 µM): 0.0105 µM | IC50 (second compound 10 µM): < 0.00949 µM | viability, T/C (second compound 0.0316 µM, first compound 0.00949 µM): 63.4% | viability, T/C (second compound 0.0316 µM, first compound 0.03 µM): 20.8% | viability, T/C (second compound 0.0316 µM, first compound 0.0949 µM): 12.1% | viability, T/C (second compound 0.0316 µM, first compound 0.3 µM): 12.3% | viability, T/C (second compound 0.0316 µM, first compound 0.949 µM): 12.3% | viability, T/C (second compound 0.0316 µM, first compound 3 µM): 11.4% | viability, T/C (second compound 0.1 µM, first compound 0.00949 µM): 59.2% | viability, T/C (second compound 0.1 µM, first compound 0.03 µM): 22.4% | viability, T/C (second compound 0.1 µM, first compound 0.0949 µM): 12.4% | viability, T/C (second compound 0.1 µM, first compound 0.3 µM): 11.6% | viability, T/C (second compound 0.1 µM, first compound 0.949 µM): 13.2% | viability, T/C (second compound 0.1 µM, first compound 3 µM): 17.6% | viability, T/C (second compound 0.316 µM, first compound 0.00949 µM): 67.8% | viability, T/C (second compound 0.316 µM, first compound 0.03 µM): 19.9% | viability, T/C (second compound 0.316 µM, first compound 0.0949 µM): 11.4% | viability, T/C (second compound 0.316 µM, first compound 0.3 µM): 13.2% | viability, T/C (second compound 0.316 µM, first compound 0.949 µM): 12.4% | viability, T/C (second compound 0.316 µM, first compound 3 µM): 12.9% | viability, T/C (second compound 1 µM, first compound 0.00949 µM): 53.1% | viability, T/C (second compound 1 µM, first compound 0.03 µM): 16% | viability, T/C (second compound 1 µM, first compound 0.0949 µM): 14% | viability, T/C (second compound 1 µM, first compound 0.3 µM): 10.8% | viability, T/C (second compound 1 µM, first compound 0.949 µM): 12.7% | viability, T/C (second compound 1 µM, first compound 3 µM): 13.6% | viability, T/C (second compound 3.16 µM, first compound 0.00949 µM): 53.4% | viability, T/C (second compound 3.16 µM, first compound 0.03 µM): 16.5% | viability, T/C (second compound 3.16 µM, first compound 0.0949 µM): 14.4% | viability, T/C (second compound 3.16 µM, first compound 0.3 µM): 12.5% | viability, T/C (second compound 3.16 µM, first compound 0.949 µM): 12.9% | viability, T/C (second compound 3.16 µM, first compound 3 µM): 14% | viability, T/C (second compound 10 µM, first compound 0.00949 µM): 45.5% | viability, T/C (second compound 10 µM, first compound 0.03 µM): 16.9% | viability, T/C (second compound 10 µM, first compound 0.0949 µM): 15.8% | viability, T/C (second compound 10 µM, first compound 0.3 µM): 13.3% | viability, T/C (second compound 10 µM, first compound 0.949 µM): 14.4% | viability, T/C (second compound 10 µM, first compound 3 µM): 17.6%

CC[C@@]1(O)C(=O)OCc2c1cc1n(c2=O)Cc2cc3c(CN(C)C)c(O)ccc3nc2-1 + COC1C(OC(N)=O)C(O)C(Oc2ccc3c(O)c(NC(=O)c4ccc(O)c(CC=C(C)C)c4)c(=O)oc3c2C)OC1(C)C
IC50 (second compound 0.0316 µM): > 0.1 µM | IC50 (second compound 0.1 µM): > 0.1 µM | IC50 (second compound 0.316 µM): > 0.1 µM | IC50 (second compound 1 µM): > 0.1 µM | IC50 (second compound 3.16 µM): > 0.1 µM | IC50 (second compound 10 µM): > 0.1 µM | viability, T/C (second compound 0.0316 µM, first compound 0.000316 µM): 109% | viability, T/C (second compound 0.0316 µM, first compound 0.001 µM): 98.7% | viability, T/C (second compound 0.0316 µM, first compound 0.00316 µM): 102% | viability, T/C (second compound 0.0316 µM, first compound 0.01 µM): 101% | viability, T/C (second compound 0.0316 µM, first compound 0.0316 µM): 98.8% | viability, T/C (second compound 0.0316 µM, first compound 0.1 µM): 68.2% | viability, T/C (second compound 0.1 µM, first compound 0.000316 µM): 97.7% | viability, T/C (second compound 0.1 µM, first compound 0.001 µM): 100% | viability, T/C (second compound 0.1 µM, first compound 0.00316 µM): 89.8% | viability, T/C (second compound 0.1 µM, first compound 0.01 µM): 101% | viability, T/C (second compound 0.1 µM, first compound 0.0316 µM): 87.9% | viability, T/C (second compound 0.1 µM, first compound 0.1 µM): 66.5% | viability, T/C (second compound 0.316 µM, first compound 0.000316 µM): 106% | viability, T/C (second compound 0.316 µM, first compound 0.001 µM): 95.9% | viability, T/C (second compound 0.316 µM, first compound 0.00316 µM): 107% | viability, T/C (second compound 0.316 µM, first compound 0.01 µM): 98.1% | viability, T/C (second compound 0.316 µM, first compound 0.0316 µM): 89.2% | viability, T/C (second compound 0.316 µM, first compound 0.1 µM): 73.9% | viability, T/C (second compound 1 µM, first compound 0.000316 µM): 111% | viability, T/C (second compound 1 µM, first compound 0.001 µM): 104% | viability, T/C (second compound 1 µM, first compound 0.00316 µM): 109% | viability, T/C (second compound 1 µM, first compound 0.01 µM): 104% | viability, T/C (second compound 1 µM, first compound 0.0316 µM): 90.1% | viability, T/C (second compound 1 µM, first compound 0.1 µM): 79.3% | viability, T/C (second compound 3.16 µM, first compound 0.000316 µM): 104% | viability, T/C (second compound 3.16 µM, first compound 0.001 µM): 102% | viability, T/C (second compound 3.16 µM, first compound 0.00316 µM): 94.5% | viability, T/C (second compound 3.16 µM, first compound 0.01 µM): 91.6% | viability, T/C (second compound 3.16 µM, first compound 0.0316 µM): 102% | viability, T/C (second compound 3.16 µM, first compound 0.1 µM): 67.3% | viability, T/C (second compound 10 µM, first compound 0.000316 µM): 96.2% | viability, T/C (second compound 10 µM, first compound 0.001 µM): 90.7% | viability, T/C (second compound 10 µM, first compound 0.00316 µM): 99.5% | viability, T/C (second compound 10 µM, first compound 0.01 µM): 94.6% | viability, T/C (second compound 10 µM, first compound 0.0316 µM): 92.1% | viability, T/C (second compound 10 µM, first compound 0.1 µM): 62.9%
